Structures are written as SMILES. Where a chain is given by its changes, count along the chain named.

One compound from WO2019242687A1, “1,3-dioxane-4,6-dione compound, and preparation method, pharmaceutical composition, and application thereof” (Shanghai Institute of Materia Medica of CAS, priority 2018, dated 2018) can be followed below.

For experiment [1], the target named is T1, SIRT1 F273L (Homo sapiens, UniProt Q96EB6, F273L).
T1 construct: made in house
T1 sequence (Q96EB6 1-747 F273L): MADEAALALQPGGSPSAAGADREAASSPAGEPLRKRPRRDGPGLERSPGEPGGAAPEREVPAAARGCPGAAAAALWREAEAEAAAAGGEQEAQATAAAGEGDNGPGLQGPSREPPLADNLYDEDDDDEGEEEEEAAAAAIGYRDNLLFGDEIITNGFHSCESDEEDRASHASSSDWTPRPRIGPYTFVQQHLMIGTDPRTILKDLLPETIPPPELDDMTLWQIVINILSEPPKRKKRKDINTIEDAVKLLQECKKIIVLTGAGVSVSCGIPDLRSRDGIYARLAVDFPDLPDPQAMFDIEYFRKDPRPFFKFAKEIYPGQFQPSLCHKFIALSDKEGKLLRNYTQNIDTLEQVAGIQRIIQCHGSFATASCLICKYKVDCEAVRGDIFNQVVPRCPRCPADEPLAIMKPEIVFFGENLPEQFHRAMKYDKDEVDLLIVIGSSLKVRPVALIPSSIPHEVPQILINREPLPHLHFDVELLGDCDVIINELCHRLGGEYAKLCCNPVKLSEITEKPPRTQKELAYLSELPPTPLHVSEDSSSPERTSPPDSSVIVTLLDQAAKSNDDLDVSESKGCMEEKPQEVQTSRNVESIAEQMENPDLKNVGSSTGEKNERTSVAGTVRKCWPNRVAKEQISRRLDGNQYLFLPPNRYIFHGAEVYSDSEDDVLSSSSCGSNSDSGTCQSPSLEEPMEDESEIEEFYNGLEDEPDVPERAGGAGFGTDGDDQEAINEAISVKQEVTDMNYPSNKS
In words: Inhibitory constant on SIRT1 mutant F273L. Format: biochemical.

Experiment [2] relates to p53 acetylation levels in SH-SY5Y human neuroblastoma cells. In words: Effect of compounds on p53 acetylation level in cells (Western blot). Type of experiment: cell-based. The conditions noted are these: ATRA-induced differentiation, compound 10 μM, 2 h, Figure 5. In general terms: A western blot detects proteins with antibodies after separation by electrophoresis.
Experiment [3] concerns the target T2, SIRT1 I347A (Homo sapiens, UniProt Q96EB6, I347A).
T2 construct: made in house
T2 sequence (Q96EB6 1-747 I347A): T1 sequence (Q96EB6 1-747 F273L) with L273F, I347A
The experiment is described as follows: Inhibitory constant on SIRT1 mutant I347A. Type of experiment: biochemical.

Experiment [4] deals with T3, SIRT1 F414A (Homo sapiens, UniProt Q96EB6, F414A).
T3 construct: made in house
T3 sequence (Q96EB6 1-747 F414A): T1 sequence (Q96EB6 1-747 F273L) with L273F, F414A
The experiment is described as follows: Inhibitory constant on SIRT1 mutant F414A. Type of experiment: biochemical.

`COc1cc(C=C2C(=O)OC(c3ccccc3)OC2=O)cc(Br)c1O` (centres unmarked) [Compound S3, 5-(3-bromo-4-hydroxy-5-methoxybenzylidene) -2-phenyl-1,3-dioxane-4,6-dione]: the Ki was 850 nM in experiment [1], 670 nM in experiment [3] and 25500 nM in experiment [4]. In addition, in experiment [2], the “effect on decrease of p53 acetylation level” value was “抑制ATRA诱导的SH-SY5Y细胞分化过程中p53乙酰化水平降低”. Also, the “effect of mutation on inhibitory activity of compound” value in experiment [4] (compared with the other mutants) was “影响最大”.

As a reminder, the Ki is a measure of affinity in units of concentration, obtained from inhibition or displacement. Low values mean higher affinity, high ones lower affinity.
